Test: Cytotoxicity assay (AlamarBlue) in mock infected MT-2 cells
Assay type: cell-based
Conditions: human
Description: The present assay was used to screen candidate antiviral compounds by quantification of virus spread and production over several rounds of infection in vitro. MT-2, a HIV-1 permissive human T-cell line, was seeded in microtiter plates and was simultaneously treated with serially diluted compound and inoculated with a HIV-1 NL4-3 viral clone engineered to express Renilla luciferase in place of Nef. Following treatment, the culture was incubated for 96 hours. After the incubation, media was collected and used to estimate relative infectivity on the indicator cell line, TZM-bl. Additionally, viral spread was quantified by measuring luciferase activity via a commercially available luciferase substrate. In parallel, MT-2 cells were seeded and inoculated with mock virus in the presence of serially diluted compound. Compound toxicity was quantified 96 hours after treatment with AlamarBlue.
MT-2 (NIH Aids reagent program 237) cells were grown and maintained in an incubator at 37° C. with 5% CO2 using a basal medium of RPMI-1640 supplemented with 10% FBS. Cells were seeded in 100 μl at 2×10^4 cells/well in white walled 96-well microtiter plates. Candidate compounds were 3-fold serially diluted in the appropriate solvent. Solvent without compound was used as a no drug reference. Cells were inoculated at a multiplicity of 0.027 with an HIV-1 NL4-3 virus stock engineered to express Renilla luciferase in place of Nef. Diluted virus stock was first added to serially diluted compound. Compound and virus were delivered to cells in an equal volume (100 μl) and treated cultures were returned to the incubator for 96 hours. In parallel, plates for cytotoxicity estimates were prepared in the same way except cells were plated in clear walled 96-well microtiter plates and were mock infected.
At 96 hours post treatment, 20 μl AlamarBlue proliferation reagent was added to 200 μl treated and mock infected cultures and incubated for 3 hours at 37° C. with 5% CO2 then read at 545, 590 nm on fluorescence plate reader (Biotek).
For all assays, data was imported into Accelrys Assay Explorer 3.3. In Assay Explorer, % inhibition (antiviral or cytotoxicity) was calculated using the solvent control as a reference by the following equation: 1−(SignalCompound/SignalReference). The % Inhibition and compound concentration data was fitted using the following 4-parameter logistic model (Assay Explorer model 42):
[formula] where X is compound concentration, Y is % inhibition, D is the maximum % Inhibition (constrained to 100%), C is IC50 value or inflection point, B is the hill slope, and A is the minimum % inhibition (constrained to 0%). The IC50 value is reported as the EC50 or CC50 depending on the assay endpoint. EC50 represents the effective concentration at which virus replication is inhibited by 50 percent. CC50 represents the concentration that results in the death of 50 percent of the host cells. The selectivity or therapeutic index (SI or TI), is the ratio of CC50 over EC50 and represents the relative effectiveness in inhibiting viral replication compared to inducing cell death.

Compound | CC50 at 96 h [µM]
COc1cc2c(cc1OCc1ccccc1)CCNC2/C=C/c1ccc2occc2c1 (stereo not drawn) [BN, 1-[(E)-2-(1-benzofuran-5-yl)ethenyl]-6-(benzyloxy)-7-methoxy-1,2,3,4-tetrahydroisoquinoline] | 20.7
COc1cc(C)c(/C=C/C2NCCc3cc(OCc4ccccc4)c(OC)cc32)cc1OCCCCN=[N+]=[N-] (stereo not drawn) [CD, 1-[(E)-2-[5-(4-azidobutoxy)-4-methoxy-2-methylphenyl]ethenyl]-6-(benzyloxy)-7-methoxy-1,2,3,4-tetrahydroisoquinoline] | 1.63
COc1cc(C)c(/C=C/C2c3cc(OC)c(OCc4ccccc4)cc3CCN2C(=O)OC(C)(C)C)cc1OCc1ccccc1 (stereo not drawn) [Example Y, tert-butyl 6-benzyloxy-1-[(E)-2-(5-benzyloxy-4-methoxy-2-methyl-phenyl)vinyl]-7-methoxy-3,4-dihydro-1H-isoquinoline-2-carboxylate] | 28.1
COc1cc(C)c(/C=C/C2NCCc3cc(OCc4ccccc4)c(OC)cc32)cc1OCc1ccccc1 (stereo not drawn) [AF, 6-benzyloxy-1-[(E)-2-(5-benzyloxy-4-methoxy-2-methyl-phenyl)vinyl]-7-methoxy-1,2,3,4-tetrahydroisoquinoline] | 3.87
COc1cc2c(cc1OCc1ccccc1)CCNC2/C=C/c1scnc1C (stereo not drawn) [DY, 6-(benzyloxy)-7-methoxy-1-[(E)-2-(4-methyl-1,3-thiazol-5-yl)ethenyl]-1,2,3,4-tetrahydroisoquinoline] | 21.6
COc1cc2c(cc1OCc1ccccc1)CCNC2/C=C/c1ccccc1NC(=O)OC(C)(C)C (stereo not drawn) [CW, tert-butyl N-{2-[(E)-2-[6-(benzyloxy)-7-methoxy-1,2,3,4-tetrahydroisoquinolin-1-yl]ethenyl]phenyl}carbamate] | 23.6
COc1cc2c(cc1OCc1ccccc1)CCNC2/C=C/c1ccc(S(C)(=O)=O)cc1 (stereo not drawn) [BZ, 6-(benzyloxy)-1-[(E)-2-(4-methanesulfonylphenyl)ethenyl]-7-methoxy-1,2,3,4-tetrahydroisoquinoline] | 1
COc1cc2c(cc1OCc1ccccc1)CCNC2/C=C/c1cc2c(cc1C)OCCC2 (stereo not drawn) [CE, 6-(benzyloxy)-7-methoxy-1-[(E)-2-(7-methyl-3,4-dihydro-2H-1-benzopyran-6-yl)ethenyl]-1,2,3,4-tetrahydroisoquinoline] | 4.87
COc1cc2c(cc1OCc1ccccc1)CCNC2/C=C/c1ccc2cccnc2c1 (stereo not drawn) [DL, 7-[(E)-2-[6-(benzyloxy)-7-methoxy-1,2,3,4-tetrahydroisoquinolin-1-yl]ethenyl]quinoline] | 7
COc1cc2c(cc1OCc1ccccc1)CCNC2/C=C/c1ccc(OC(F)(F)F)cc1C (stereo not drawn) [Example AJ, (E)-6-(benzyloxy)-7-methoxy-1-(2-methyl-4-(trifluoromethoxy)styryl)-1,2,3,4-tetrahydroisoquinoline] | 5
COc1ccc(/C=C/C2NCCc3cc(OCc4ccccc4)c(OC)cc32)cc1C (stereo not drawn) [EI, 6-(benzyloxy)-7-methoxy-1-[(E)-2-(4-methoxy-3-methylphenyl)ethenyl]-1,2,3,4-tetrahydroisoquinoline] | 11.8
COc1cc2c(cc1OCc1ccccc1)CCNC2/C=C/c1cc(OCC2CCNCC2)c(OC)cc1C (stereo not drawn) [BY, 6-(benzyloxy)-7-methoxy-1-[(E)-2-[4-methoxy-2-methyl-5-(piperidin-4-ylmethoxy)phenyl]ethenyl]-1,2,3,4-tetrahydroisoquinoline] | 1.97
COc1ccc(/C=C/C2NCCc3cc(OCc4ccccc4)c(OC)cc32)cc1CN1CCCCC1 (stereo not drawn) [EM, 6-(benzyloxy)-7-methoxy-1-[(E)-2-[4-methoxy-3-(piperidin-1-ylmethyl)phenyl]ethenyl]-1,2,3,4-tetrahydroisoquinoline] | 1.8
COc1cc2c(cc1OCc1ccccc1)CCNC2/C=C/c1ccccc1N (stereo not drawn) [CX, 2-[(E)-2-[6-(benzyloxy)-7-methoxy-1,2,3,4-tetrahydroisoquinolin-1-yl]ethenyl]aniline] | 20.8
COc1cc2c(cc1OCc1ccccc1)CCNC2/C=C/c1ccc(OC)c2ccoc12 (stereo not drawn) [Example AO, 6-Benzyloxy-7-methoxy-1-[(E)-2-(4-methoxybenzofuran-7-yl)vinyl]-1,2,3,4-tetrahydroisoquinoline] | 9.94
COc1cc2c(cc1OCc1ccccc1)CCNC2/C=C/c1ccccc1C(F)(F)F (stereo not drawn) [DA, 6-(benzyloxy)-7-methoxy-1-[(E)-2-[2-(trifluoromethyl)phenyl]ethenyl]-1,2,3,4-tetrahydroisoquinoline] | 10
COc1cc2c(cc1OCc1ccccc1)CCNC2/C=C/c1ccc(C(=O)O)cc1 (stereo not drawn) [EQ, 4-[(E)-2-[6-(benzyloxy)-7-methoxy-1,2,3,4-tetrahydroisoquinolin-1-yl]ethenyl]benzoic acid] | 10
CCCCOc1ccc(/C=C/C2NCCc3cc(OCc4ccccc4)c(OC)cc32)cc1OC (stereo not drawn) [BD, 6-(benzyloxy)-1-[(E)-2-(4-butoxy-3-methoxyphenyl)ethenyl]-7-methoxy-1,2,3,4-tetrahydroisoquinoline] | 3.62
CCn1cc(/C=C/C2NCCc3cc(OCc4ccccc4)c(OC)cc32)cn1 (stereo not drawn) [Example AL, 6-Benzyloxy-1-[(E)-2-(1-ethylpyrazol-4-yl)vinyl]-7-methoxy-1,2,3,4-tetrahydroisoquinoline] | 24.2
COc1cc2c(cc1OCc1ccccc1)CCNC2/C=C/c1ccc(-c2cccnc2)cc1 (stereo not drawn) [DJ, 6-(benzyloxy)-7-methoxy-1-[(E)-2-[4-(pyridin-3-yl)phenyl]ethenyl]-1,2,3,4-tetrahydroisoquinoline] | 5.86
COc1cc2c(cc1OCc1ccccc1)CCNC2/C=C/c1cn(C)c2ncccc12 (stereo not drawn) [DP, 6-(benzyloxy)-7-methoxy-1-[(E)-2-{1-methyl-1H-pyrrolo[2,3-b]pyridin-3-yl}ethenyl]-1,2,3,4-tetrahydroisoquinoline] | 1.3
COc1cc2c(cc1OCc1ccccc1)CCNC2/C=C/c1cscn1 (stereo not drawn) [DR, 6-(benzyloxy)-7-methoxy-1-[(E)-2-(1,3-thiazol-4-yl)ethenyl]-1,2,3,4-tetrahydroisoquinoline] | 25.4
CCCCN1CCc2cc(OCc3ccccc3)c(OC)cc2C1/C=C/c1ccc(OC)c(OCc2ccccc2)c1 (stereo not drawn) [Example G, 6-Benzyloxy-1-[(E)-2-(3-benzyloxy-4-methoxy-phenyl)vinyl]-2-butyl-7-methoxy-3,4-dihydro-1H-isoquinoline] | 5
COc1cc2c(cc1OCc1ccccc1)CCNC2/C=C/c1ccccc1N1CCCCC1 (stereo not drawn) [DX, 6-(benzyloxy)-7-methoxy-1-[(E)-2-[2-(piperidin-1-yl)phenyl]ethenyl]-1,2,3,4-tetrahydroisoquinoline] | 5.38
CCOC(=O)c1coc(-c2cccc(/C=C/C3NCCc4cc(OCc5ccccc5)c(OC)cc43)c2)n1 (stereo not drawn) [EF, ethyl 2-{3-[(E)-2-[6-(benzyloxy)-7-methoxy-1,2,3,4-tetrahydroisoquinolin-1-yl]ethenyl]phenyl}-1,3-oxazole-4-carboxylate] | 5.9
COc1ccc(/C=C/C2NCCc3cc(OCc4ccccc4)c(OC)cc32)c(OC)c1 (stereo not drawn) [AV, 6-(benzyloxy)-1-[(E)-2-(2,4-dimethoxyphenyl)ethenyl]-7-methoxy-1,2,3,4-tetrahydroisoquinoline] | 5.5
COc1ccc(/C=C/C2c3cc(OC)c(OCc4ccccc4)cc3CCN2C(=O)c2cnccn2)cc1OCc1ccccc1 (stereo not drawn) [Example B, [6-Benzyloxy-1-[(E)-2-(3-benzyloxy-4-methoxy-phenyl)vinyl]-7-methoxy-3,4-dihydro-1H-isoquinolin-2-yl]-pyrazin-2-yl-methanone] | 5
COc1cc2c(cc1OCc1ccccc1)CCNC2/C=C/c1cccc2c1OCCC2 (stereo not drawn) [CF, 6-(benzyloxy)-1-[(E)-2-(3,4-dihydro-2H-1-benzopyran-8-yl)ethenyl]-7-methoxy-1,2,3,4-tetrahydroisoquinoline] | 9.1
COc1cc2c(cc1OCc1ccccc1)CCNC2/C=C/c1cn(C(=O)OC(C)(C)C)c2ccccc12 (stereo not drawn) [CI, tert-butyl 3-[(E)-2-[6-(benzyloxy)-7-methoxy-1,2,3,4-tetrahydroisoquinolin-1-yl]ethenyl]-1H-indole-1-carboxylate] | 4.98
COc1cc2c(cc1OCc1ccccc1)CCNC2/C=C/c1ccc(-n2cncn2)cc1 (stereo not drawn) [DT, 6-(benzyloxy)-7-methoxy-1-[(E)-2-[4-(1H-1,2,4-triazol-1-yl)phenyl]ethenyl]-1,2,3,4-tetrahydroisoquinoline] | 7.39

— patent US9518022B2, “Anti-HIV compounds” (priority 2014, dated 2016)
